Among the data in PubChem BioAssay (NCI) are TGI values, retold here.

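Results reflect a 48-hour exposure of cells in 96-well plates to compound at five concentrations. At the TGI there is no net growth.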

The first test relates to 786-0 renal. The test is described as follows: inhibition of tumour cell growth, NCI panel, 48 h.
`O=C1[C@@H]2C3c4ccccc4C([C@@H]2C(=O)N1c1ccccc1)S3(=O)=O`: the TGI is greater than 100 µM.
The same measure, in the same setting: then `COc1ccc(/C(=N\NC(=O)C(N)=O)C(c2ccc(OC)cc2)C2(O)C(=O)Nc3c(Cl)cccc32)cc1` (stereo not given), with greater than 100 µM.
On the same count and under the same terms, next, `CCOc1ccc2c(c1)[n+]([O-])c(-c1ccccc1Cl)c(N)[n+]2[O-]`: greater than 100 µM.

A further test has as its system LOX IMVI melanoma. Description: inhibition of tumour cell growth, NCI panel, 48 h.
As for `c1ccc(SC2CCSc3ccccc3C2Sc2ccccc2)cc1` (stereo not given), the TGI was greater than 100 µM.
Molecule `O=C(Nc1cc(Cl)ccc1Cl)c1cc2cccc(Cl)c2oc1=O` gave a TGI greater than 100 µM.
The same measure, in the same setting: then `O=c1n(-c2ccccc2)c(=O)n2n1C1C=CC2C2C(C1)C2(Cl)Cl` (stereo not given), with greater than 100 µM; and `Cc1ccc(Cn2c(C)nc3c2C(=O)c2ccccc2C3=O)cc1`, with 6.18 µM; and `CCOC(=O)C(C)(C)Oc1ccc2c(C)c(-c3ccc(Cl)cc3)c(=O)oc2c1`, with greater than 100 µM.
In the case of `CCc1c(OC(C)=O)c2c(NC3OC(COC(C)=O)C(OC(C)=O)C(OC(C)=O)C3OC(C)=O)nc(OC)nc2oc1=O` (stereo not given), the TGI was greater than 100 µM.
On the same count and under the same terms, next, `O=C(NC(=O)c1cn(CCNCCO)c(=O)[nH]c1=O)OCc1ccccc1`: greater than 100 µM.
As to `CCC1C2C=CC(CC2)N1S(=O)(=O)c1ccc(C)cc1` (stereo not given), the TGI worked out at 31.5 µM.
For the molecule `CCOc1ccc(N2C(=O)/C(=C/c3ccc(N(CCC#N)CCC#N)cc3)N=C2c2cc([N+](=O)[O-])ccc2Cl)cc1`, the TGI came to 62.6 µM.
Same read-out and setting: next, `COc1ccc(-c2cc(-c3ccccc3)c(C#N)c(=O)n2C2OC(CO)C(O)C(O)C2O)cc1` (stereo not given): greater than 100 µM.
The same measure, in the same setting: next, `O=C(O)CSc1n[nH]c(-c2ccccc2)n1`: greater than 100 µM; `O=C1[C@@H]2C3c4ccccc4C([C@@H]2C(=O)N1c1ccccc1)S3(=O)=O`: greater than 100 µM; `COc1ccc(/C(=N\NC(=O)C(N)=O)C(c2ccc(OC)cc2)C2(O)C(=O)Nc3c(Cl)cccc32)cc1` (stereo not given): greater than 100 µM.

For a further test, the system named is SK-MEL-28 melanoma. Description: inhibition of tumour cell growth, NCI panel, 48 h.
With `O=C(Nc1cc(Cl)ccc1Cl)c1cc2cccc(Cl)c2oc1=O`, the TGI was greater than 100 µM.
On the same count and under the same terms, then `Cc1ccc(Cn2c(C)nc3c2C(=O)c2ccccc2C3=O)cc1`, with greater than 100 µM; and `CCOC(=O)C(C)(C)Oc1ccc2c(C)c(-c3ccc(Cl)cc3)c(=O)oc2c1`, with greater than 100 µM.
On to `O=C(NC(=O)c1cn(CCNCCO)c(=O)[nH]c1=O)OCc1ccccc1`, for which the TGI is greater than 100 µM.
Still for that read-out and setting: then `CCOc1ccc(N2C(=O)/C(=C/c3ccc(N(CCC#N)CCC#N)cc3)N=C2c2cc([N+](=O)[O-])ccc2Cl)cc1`, with 41.8 µM; and `COc1ccc(-c2cc(-c3ccccc3)c(C#N)c(=O)n2C2OC(CO)C(O)C(O)C2O)cc1` (stereo not given), with greater than 100 µM.
`O=C(N/N=C1/C(=O)N(c2ccc(Cl)cc2Cl)C(=O)C(=O)C1c1nc2ccccc2o1)c1ccccc1O` (stereo not given) returned a TGI of 71 µM.
Same read-out and setting: then `O=C(O)CSc1n[nH]c(-c2ccccc2)n1`, with greater than 100 µM; and `COc1ccc(/C(=N\NC(=O)C(N)=O)C(c2ccc(OC)cc2)C2(O)C(=O)Nc3c(Cl)cccc32)cc1` (stereo not given), with greater than 100 µM.
Same read-out and setting: then `CCOc1ccc2c(c1)[n+]([O-])c(-c1ccccc1Cl)c(N)[n+]2[O-]`, with greater than 100 µM.

In a further test the test system is UACC-257 melanoma. The test is described as follows: inhibition of tumour cell growth, NCI panel, 48 h.
Regarding `c1ccc(SC2CCSc3ccccc3C2Sc2ccccc2)cc1` (stereo not given), the TGI was greater than 100 µM.
Consider `O=C(Nc1cc(Cl)ccc1Cl)c1cc2cccc(Cl)c2oc1=O`, for which the TGI was greater than 100 µM.
In the case of `O=c1n(-c2ccccc2)c(=O)n2n1C1C=CC2C2C(C1)C2(Cl)Cl` (stereo not given), the TGI is greater than 100 µM.
For `Cc1ccc(Cn2c(C)nc3c2C(=O)c2ccccc2C3=O)cc1`, the TGI came out at 60.8 µM.
Still for that read-out and setting: next, `CCOC(=O)C(C)(C)Oc1ccc2c(C)c(-c3ccc(Cl)cc3)c(=O)oc2c1`: greater than 100 µM; `CCc1c(OC(C)=O)c2c(NC3OC(COC(C)=O)C(OC(C)=O)C(OC(C)=O)C3OC(C)=O)nc(OC)nc2oc1=O` (stereo not given): greater than 100 µM.
Still for that read-out and setting: next, `CCC1C2C=CC(CC2)N1S(=O)(=O)c1ccc(C)cc1` (stereo not given): 93.5 µM; `COc1ccc(-c2cc(-c3ccccc3)c(C#N)c(=O)n2C2OC(CO)C(O)C(O)C2O)cc1` (stereo not given): greater than 100 µM; `O=C1[C@@H]2C3c4ccccc4C([C@@H]2C(=O)N1c1ccccc1)S3(=O)=O`: greater than 100 µM.
Still for that read-out and setting: next, `COc1ccc(/C(=N\NC(=O)C(N)=O)C(c2ccc(OC)cc2)C2(O)C(=O)Nc3c(Cl)cccc32)cc1` (stereo not given): greater than 100 µM.
With `CCOc1ccc2c(c1)[n+]([O-])c(-c1ccccc1Cl)c(N)[n+]2[O-]`, the TGI was greater than 100 µM.

A further test relates to UACC-62 melanoma. The test is described as follows: inhibition of tumour cell growth, NCI panel, 48 h.
`O=C(Nc1cc(Cl)ccc1Cl)c1cc2cccc(Cl)c2oc1=O`: the TGI was greater than 100 µM.
Same read-out and setting: then `O=c1n(-c2ccccc2)c(=O)n2n1C1C=CC2C2C(C1)C2(Cl)Cl` (stereo not given), with greater than 100 µM; and `Cc1ccc(Cn2c(C)nc3c2C(=O)c2ccccc2C3=O)cc1`, with 16.1 µM; and `CCOC(=O)C(C)(C)Oc1ccc2c(C)c(-c3ccc(Cl)cc3)c(=O)oc2c1`, with greater than 100 µM.
Same read-out and setting: next, `CCc1c(OC(C)=O)c2c(NC3OC(COC(C)=O)C(OC(C)=O)C(OC(C)=O)C3OC(C)=O)nc(OC)nc2oc1=O` (stereo not given): greater than 100 µM; `O=C(NC(=O)c1cn(CCNCCO)c(=O)[nH]c1=O)OCc1ccccc1`: greater than 100 µM.
On the same count and under the same terms, next, `CCC1C2C=CC(CC2)N1S(=O)(=O)c1ccc(C)cc1` (stereo not given): 49.7 µM; `CCOc1ccc(N2C(=O)/C(=C/c3ccc(N(CCC#N)CCC#N)cc3)N=C2c2cc([N+](=O)[O-])ccc2Cl)cc1`: 83.3 µM; `COc1ccc(-c2cc(-c3ccccc3)c(C#N)c(=O)n2C2OC(CO)C(O)C(O)C2O)cc1` (stereo not given): greater than 100 µM.
For `O=C(N/N=C1/C(=O)N(c2ccc(Cl)cc2Cl)C(=O)C(=O)C1c1nc2ccccc2o1)c1ccccc1O` (stereo not given), the TGI came out at 48.6 µM.
Regarding `O=C(O)CSc1n[nH]c(-c2ccccc2)n1`, the TGI was greater than 100 µM.
The same measure, in the same setting: next, `O=C1[C@@H]2C3c4ccccc4C([C@@H]2C(=O)N1c1ccccc1)S3(=O)=O`: greater than 100 µM.
The same measure, in the same setting: next, `COc1ccc(/C(=N\NC(=O)C(N)=O)C(c2ccc(OC)cc2)C2(O)C(=O)Nc3c(Cl)cccc32)cc1` (stereo not given): greater than 100 µM.
